Reference: the supplement of paper PMC10331698
± gives the standard deviation of the averaged measurements.

Assays:
Experiment in all cases: level (log10 ratio to DMSO vehicle control); higher = higher biomarker level / cell amount than vehicle control
[1] = compound: CCOC(=O)CC(=O)C(F)(F)C(F)(F)F [Ethyl pentafluoropropionyl acetate] (in DMSO)
Experimental: (§1)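 BioMAP Diversity Plus panel of 12 human primary cell co-culture systems (3C, 4H, LPS, SAg, BT, BF4T, BE3C, CASM3C, HDF3CGF, KF3CT, MyoF, Mphg). Compounds were added 1 h before stimulation and left for 24 h (MyoF 48 h; BT 72 h for soluble read-outs or 6 d for IgG). Biomarkers were read by ELISA, cytotoxicity by SRB, PBMC viability and proliferation by Alamar Blue. Each well value was divided by the mean of 8 DMSO control wells on the same plate and log10 transformed; duplicate blinded samples were tested at 4 concentrations.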

[2] = compound: C[C@@H]1C[C@H]2[C@@H]3CCC4=CC(=O)C=C[C@]4(C)[C@@]3(F)[C@@H](O)C[C@]2(C)[C@@]1(O)C(=O)COP(=O)(O)O [Dexamethasone sodium phosphate] (in DMSO)
Experimental: as §1

Octafluoroadipic acid = compound: O=C(O)C(F)(F)C(F)(F)C(F)(F)C(F)(F)C(=O)O [Octafluoroadipic acid] (in DMSO)
Experimental: as §1

[3] = compound: O=S(=O)(O)C(F)(F)C(F)(F)OC(F)(F)C(F)(F)F [Perfluoro(2-ethoxyethane)sulfonic acid] (in DMSO)
Experimental: as §1

[4] = compound: OCC(F)(F)C(F)(F)C(F)(F)C(F)(F)C(F)(F)C(F)(F)CO [1H,1H,8H,8H-Perfluorooctane-1,8-diol] (in DMSO)
Experimental: as §1

[5] = compound: OCCC(F)(F)C(F)(F)C(F)(F)C(F)(F)F [4:2 Fluorotelomer alcohol] (in DMSO)
Experimental: as §1

Row | Test System | level (log10) ([1]; 6700 nM) | level (log10) ([1]; 20000 nM) | level (log10) ([1]; 60000 nM) | level (log10) ([2]; 1500 nM) | level (log10) ([2]; 4400 nM) | level (log10) ([2]; 13000 nM) | level (log10) ([2]; 40000 nM) | level (log10) (Octafluoroadipic acid; 6700 nM) | level (log10) (Octafluoroadipic acid; 20000 nM) | level (log10) (Octafluoroadipic acid; 60000 nM) | level (log10) ([3]; 6700 nM) | level (log10) ([3]; 20000 nM) | level (log10) ([3]; 60000 nM) | level (log10) ([4]; 6700 nM) | level (log10) ([4]; 20000 nM) | level (log10) ([4]; 60000 nM) | level (log10) ([5]; 6700 nM) | level (log10) ([5]; 20000 nM) | level (log10) ([5]; 60000 nM)
1 | lMphg:SRB | 0.005 ± 0.0071 | -0.0005 ± 0.0078 | 0.0055 ± 0.0035 | -0.0045 ± 0.0092 | -0.0125 ± 0.0078 | -0.006 ± 0.0014 | -0.0265 ± 0.0021 | -0.023 ± 0.017 | -0.0045 ± 0.00071 | 0.001 ± 0.023 | -0.001 ± 0.0014 | 0 ± 0.013 | -0.021 ± 0.0071 | -0.0125 ± 0.0078 | -0.0115 ± 0.018 | -0.0245 ± 0.00071 | 0.001 ± 0.0099 | 0.0015 ± 0.0035 | 0.004 ± 0.0071
2 | KF3CT:CXCL9/MIG | 0.002 ± 0.0028 | 0.0015 ± 0.0078 | -0.0025 ± 0.0064 | -0.008 ± 0.024 | 0.002 ± 0.0014 | -0.0075 ± 0.0021 | -0.01 ± 0.0014 | 0.003 ± 0.014 | 0.0075 ± 0.016 | 0.0155 ± 0.0021 | 0.0105 ± 0.0064 | -0.0015 ± 0.012 | 0.0155 ± 0.0021 | 0.007 ± 0.011 | 0.0025 ± 0.00071 | 0.0105 ± 0.005 | -0.0055 ± 0.029 | -0.0115 ± 0.021 | -0.0115 ± 0.0035
3 | MyoF:SRB | -0.001 ± 0.0028 | -0.0065 ± 0.00071 | -0.0045 ± 0.00071 | -0.01 ± 0.0099 | -0.0105 ± 0.0035 | -0.0135 ± 0.0092 | -0.0105 ± 0.00071 | -0.0105 ± 0.0064 | -0.005 ± 0.013 | -0.0015 ± 0.00071 | -0.005 ± 0.0071 | -0.005 | -0.0015 ± 0.0064 | -0.0095 ± 0.012 | -0.0145 ± 0.0064 | -0.0305 ± 0.0021 | -0.0015 ± 0.0035 | 0.0015 ± 0.0035 | -0.0015 ± 0.005
4 | HDF3CGF:CXCL9/MIG | 0.001 ± 0.0042 | -0.013 ± 0.0085 | -0.0185 ± 0.005 | 0.042 ± 0.037 | 0.067 ± 0.018 | 0.0555 ± 0.029 | 0.0435 ± 0.042 | 0.009 ± 0.0028 | 0.007 ± 0.018 | -0.0055 ± 0.015 | 0.004 ± 0.0057 | 0.002 ± 0.0042 | -0.0055 ± 0.005 | 0.0025 ± 0.0021 | 0.045 ± 0.011 | 0.0245 ± 0.056 | -0.0335 ± 0.037 | -0.0065 ± 0.0064 | 0.01 ± 0.04
5 | MyoF:bFGF | -0.0045 ± 0.0064 | 0.0015 ± 0.0021 | 0.0135 ± 0.012 | -0.035 ± 0.042 | -0.0165 ± 0.035 | -0.042 ± 0.031 | -0.028 ± 0.0042 | -0.0035 ± 0.00071 | 0.002 ± 0.0057 | 0.0055 ± 0.0092 | 0.003 ± 0.0014 | 0.0085 ± 0.0064 | 0.0165 ± 0.0092 | 0.009 ± 0.014 | 0.0145 ± 0.0021 | 0.014 ± 0.014 | -0.0015 ± 0.013 | -0.0025 ± 0.015 | 0.004 ± 0.044
6 | 3C:CD62E/E-Selectin | -0.0035 ± 0.013 | -0.007 ± 0.023 | 0.011 ± 0.0071 | -0.0055 ± 0.011 | -0.024 ± 0.024 | -0.005 ± 0.024 | 0.0005 ± 0.0078 | -0.029 ± 0.0071 | -0.004 ± 0.016 | -0.0205 ± 0.0078 | 0.0125 ± 0.012 | 0 | 0.0125 ± 0.0064 | 0.0005 ± 0.013 | -0.007 ± 0.0085 | 0.015 ± 0.013 | -0.019 ± 0.021 | -0.012 ± 0.0014 | -0.0105 ± 0.0078
7 | HDF3CGF:Collagen III | -0.02 ± 0.047 | -0.0505 ± 0.023 | -0.0895 ± 0.015 | -0.0625 ± 0.12 | -0.048 ± 0.052 | -0.079 ± 0.05 | -0.0675 ± 0.056 | -0.0085 ± 0.0064 | 0.0005 ± 0.018 | 0.0005 ± 0.0035 | -0.062 ± 0.12 | -0.08 ± 0.085 | -0.025 ± 0.16 | -0.0175 ± 0.013 | -0.0195 ± 0.0092 | -0.016 ± 0.0057 | -0.055 ± 0.068 | -0.0105 ± 0.0092 | 0.0335 ± 0.03
8 | BE3C:MMP-1 | -0.01 ± 0.013 | -0.023 ± 0.018 | 0.021 ± 0.0014 | -0.113 ± 0.059 | -0.0825 ± 0.11 | -0.137 ± 0.052 | -0.141 ± 0.069 | -0.0145 ± 0.025 | -0.0205 ± 0.037 | 0.0155 ± 0.0021 | -0.001 ± 0.0071 | 0.0055 ± 0.018 | 0.108 ± 0.069 | 0.0125 ± 0.012 | -0.0055 ± 0.013 | 0.0425 ± 0.056 | -0.023 ± 0.078 | -0.023 ± 0.058 | 0.0145 ± 0.0064
9 | BE3C:uPA | -0.0105 ± 0.013 | -0.011 ± 0.013 | -0.0195 ± 0.0035 | -0.0165 ± 0.005 | -0.0125 ± 0.021 | -0.036 ± 0.027 | -0.051 ± 0.038 | -0.002 ± 0.02 | -0.0135 ± 0.005 | -0.0005 ± 0.0021 | -0.0015 ± 0.022 | -0.0145 ± 0.039 | -0.004 ± 0.023 | -0.012 ± 0.0071 | -0.0125 ± 0.005 | -0.009 ± 0.024 | -0.032 ± 0.065 | -0.014 ± 0.058 | 0.014 ± 0.027
10 | lMphg:sIL-10 | -0.0405 ± 0.012 | -0.0435 ± 0.035 | -0.0305 ± 0.022 | -0.286 ± 0.05 | -0.503 ± 0.054 | -0.62 ± 0.056 | -0.646 ± 0.054 | -0.067 ± 0.014 | -0.0425 ± 0.077 | -0.0425 ± 0.046 | 0.0105 ± 0.13 | -0.0625 ± 0.005 | -0.818 ± 0.028 | -0.175 ± 0.042 | -0.17 ± 0.037 | -0.216 ± 0.0057 | -0.0195 ± 0.0078 | -0.0385 ± 0.022 | -0.025 ± 0.0099
